Structure (SMILES)	melting point
FC(F)(F)c1cccc(C(NC2=NCCO2)C(F)(F)F)c1 (stereo unspecified)	129 to 132 °C
c1ccc(-c2ccc(CN3CCN(c4ccccc4)CC3)s2)cc1	88 °C
OCc1ccc(OCc2ccc(-c3ccccc3)cn2)cc1	159 to 160 °C
COC(=O)c1cc(-c2ccc3c(c2)CCO3)n[nH]c1=O	192 to 200 °C
COc1ccc2[nH]cc(CCN3CCC(c4ccc(C)cc4)CC3)c2c1	131 to 133 °C
COc1cc(C=CC(=O)COc2ccccc2)ccc1O	85 to 87 °C
CCCCOc1ccc(S(=O)(=O)C2(C(=O)OCC)CCN(Cc3ccc(Cl)c(Cl)c3)CC2)cc1	86 °C
CC(=O)Nc1ccc(-c2nc3n(c2-c2ccc(NC(C)=O)cc2)CCS3)cc1	285 to 290 °C
O=C(CCCNC(=O)C(=O)c1cn2c3c(cccc13)CCC2)NO	95 to 97 °C
O=C(O)c1csc(Cn2cc(C3c4ccc(Br)cc4C=Cc4cc(Br)ccc43)c(=S)[nH]c2=O)n1	215 to 217 °C
CC1=C(S(C)(=O)=O)C(c2ccc(Cl)c(Cl)c2)C2=C(CCC2=O)N1 (stereo unspecified)	218 to 220 °C
CCOC(=O)CNCP(=O)(O)O	> 220 °C
COc1ccc2c(-c3ccccc3F)csc2c1Cl	136 to 137 °C
COc1ccc(S(=O)(=O)N(CCC(F)=C(F)F)c2ccccc2/C=C/c2ccncc2)cc1	148 to 149 °C
CN(CCSc1ccc([N+](=O)[O-])cc1)CCc1ccc([N+](=O)[O-])cc1	56 to 57 °C
COc1c(F)ccc2c(C3CCN(C(=O)OC(C)(C)C)CC3)noc12	94 to 96 °C
CC(O)CC1NCc2ccsc2-n2cccc21 (stereo unspecified)	130 °C
CCn1cc(-c2ccc([C@H](C)N3CC[C@](CC(C)(C)O)(c4ccccc4)OC3=O)cc2)ccc1=O	167 to 168 °C
CC(C)(C)C(S)(CC#N)C(C)(C)C	154 to 155 °C
CC(C)(C)OC(=O)[C@@H]1CSC(Cc2ccccc2)N1C(=O)CNC(=O)Nc1cccc(CC(=O)O)c1 (stereo partly specified)	110 °C
N#CCCn1ccc(NC(=S)NCC(F)(F)F)n1	164 to 165 °C
CC(C)(C)OC(=O)Nc1ccccc1NC(=O)c1nc2c(s1)CN(C(=O)OC(C)(C)C)CC2	188 °C
O=C(C=CCl)CCCN1C(=O)c2ccccc2C1=O	92 °C
Cc1ccc(C2=Nc3ccccc3N=C(N3CCN(C)CC3)C2)cc1	169 to 170 °C

Structure (SMILES)	melting point
CN1C(=O)C2CCCN2C(=O)c2ccccc21 (stereo unspecified)	124 to 126 °C
N=C(N)NN=C1CCc2ccc(N)cc21	> 280 °C
N#Cc1c(N2CCN(C(=O)c3cccs3)CC2)c2cscc2n(Cc2ccc(F)cc2)c1=O	238 °C
NC(=O)c1nnn(Cc2ccc(Cl)c(C(Cl)=C(Cl)Cl)c2)c1N	174 to 175 °C
Cc1ncsc1CCOc1ccc(NC(=O)c2cc(F)cc(N3CCOCC3)c2)c2ccccc12	186 to 187 °C
O=c1[nH]c2ncc(-c3ccc(F)nc3)nc2n1CC1CCOCC1	220 to 222 °C
N#Cc1ccc(N2CCCN(c3ccnc4sc(C(N)=O)c(N)c34)CC2)cc1	151 to 153 °C
COc1cc(OC)nc(Oc2c(Cl)cccc2C(=O)O)n1	151 to 152 °C
COc1cc2c(c(Cl)c1Cl)CCCC2	67 to 68.5 °C
O=C1CCC2=C1C(c1cccc([N+](=O)[O-])c1)C1=C(CCCS1)N2 (stereo unspecified)	> 260 °C
COC(=O)c1cc(Br)c(O)c(Br)n1	148 to 150 °C
Cc1ccccc1N1CCN(C(=O)c2ccc3n2Cc2ccccc2N(C(=O)c2ccc(C4CCCCC4)cc2)C3)CC1	141 to 143 °C
O=c1cnn(-c2ccc(C(c3ccc(Cl)cc3)c3cc(-c4ccccc4)cs3)c(Cl)c2)c(=O)[nH]1 (stereo unspecified)	90 °C
CCCCCCC(O)CNCC(O)CO (stereo unspecified)	85 to 90 °C
COc1nc(NC(=O)NS(=O)(=O)Cc2ccccc2C(C)OC(C)=O)nc(OC)n1 (stereo unspecified)	90 to 95 °C
O=C(O)c1ccc(OC(=O)c2cccc(C34CC5CC(CC(C5)C3)C4)c2)cc1	237 to 239 °C
O=C1OC2(C=Cc3ccccc3O2)c2ccccc21 (stereo unspecified)	113 to 114 °C
Nc1nc2cccnc2c2c1nc(CCCO)n2CC1(O)CCOCC1	237 to 238 °C
CCOC(=O)c1c(Cn2ccnn2)nc2cc(OC)c(OC)cc2c1-c1ccc(OC)c(OC)c1	195 to 196 °C
CCCCn1ccc(-c2ccc3c(c2)OCCN3C2CCOCC2)c(Cl)c1=O	141 °C
CCCCCCCCCCCCCCCCCCOc1cc(OCCCCC(=O)OC)cc(N(CC(=O)OCc2ccccc2)CC(=O)OCc2ccccc2)c1	48 to 50 °C
CCCCCCCC(Oc1ccc(C(C)CC)cc1)C(=O)Nc1c(-c2ccccc2)nc2ccccc2c1C(=O)OC (stereo unspecified)	89 to 91 °C
COC(=O)c1ncc(OS(=O)(=O)c2ccc(C)cc2)c2c1[nH]c1ccccc12	230 to 231 °C
Cn1cc(C2=C(c3cn(CCCNC(N)=NC#N)c4ccccc34)C(=O)NC2=O)c2ccccc21	168 to 170 °C

Structure (SMILES)	melting point
Cc1cc(Cl)cc(NC(=O)Cc2ccc(OC3(C(=O)O)CCCC3C)cc2)c1 (stereo unspecified)	180 to 182 °C
CCN(CC)c1cccc(NC(=O)COC(C)=O)c1C#N	50 to 51 °C
O=C1c2ccccc2-c2c1c1ccccc1c(=O)n2C1CC1	206 to 208 °C
COc1ccc(C=C2Oc3ccc(C(=O)O)cc3C2=O)c(OC)c1OC	247 to 249 °C
Fc1ccc(Cn2c(NC3CCN(CCNc4nnnn4-c4ccccc4)CC3)nc3ccccc32)cc1	171 °C
COc1ccc2c(c1)c1c(n2C(=O)c2ccccc2)CCCC1C(=O)O (stereo unspecified)	157 to 159 °C
CCCCc1nc2c(N)nc3ccccc3c2n1CCOc1ccccc1	168 to 170 °C
CCOC(=O)c1cn(-c2ccc(F)cc2)c2cc(C#C[Si](C)(C)C)ccc2c1=O	247 to 249 °C
CCCCCCCCCCNC(=O)c1cc(C(=O)NCCCCCCCCCC)cc(N(CC(=O)O)CC(=O)O)c1	164 to 167 °C
CCc1nc(-c2ccccc2)n(CC(C)(OC)OC)c(=O)c1C	80 to 83 °C
CCCCC(=O)Nc1cccc(NC(=O)CC(C)=O)c1	90 °C
Sc1n[nH]c(-n2cccn2)n1	245 to 247 °C
C#Cc1cc(C(=O)NC(C)CCCc2cccnc2)ccc1-c1ccc(OC)c(OC)c1 (stereo unspecified)	135 to 137 °C
O=C(NCc1ccc(Cl)cc1)c1cnc2c(F)cc(/C=C\CO)cc2c1O	234 to 235 °C
COc1ccc(C(=O)Sc2ccc(C(=O)O)cc2)cc1C(C)(C)C	220 to 221 °C
Cc1[nH]c(-c2ccccc2)c(N)c1C(=O)c1ccccc1Cl	214 to 216 °C
CCOC(=O)c1ccc(C=C2C=CN(CC)c3ccccc32)c([N+](=O)[O-])c1	100 °C
CN1c2ccccc2C(C)(C)C12CNc1c(cc(N3CCCCC3)c3oc4ccccc4c13)O2 (stereo unspecified)	214 to 216 °C
O=c1n(CCCN2CCC(c3c[nH]c4ccccc34)CC2)nc2ccccn12	112 °C
Cc1sc2c(Br)c3ccccc3c(-c3ccc(OS(=O)(=O)c4ccc(C(=O)O)c(O)c4)c(C(C)C)c3)c2c1C	> 225 °C
Cc1nn(Cc2ccccc2)cc1C(=O)Nc1ccc(N2CCC(N3CCOCC3)CC2)c(C#N)c1	193 °C
CC(C)(C)NN=C(O)C(=O)c1ccccc1	138 to 139 °C
CNC(=O)Cc1nn(-c2ccccc2)c(=O)c2c1c1c(Br)cccc1n2C	267 to 268 °C
CCOC(=O)COc1cccc2c1CCc1sc(SC(c3ccccc3)c3ccccc3)nc1-2	124 to 126 °C

Structure (SMILES)	melting point
CCOC(=O)CCc1c(-c2cc(Cl)ccc2OC)c2cc(C(F)(F)F)ccc2[nH]c1=O	193 to 195 °C
CCOC(=O)NC(=O)C(C#N)=CNc1c(C)cccc1C	138 to 140 °C
CCOC(=O)COc1c(OC)cc(Cl)c2c1CN1CCc3cc(OC)c(O)cc3C1C2 (single isomer, unassigned; (-))	132 °C
O=C1CCC(c2ccc(NC(=O)CCNCCc3ccccc3)cc2)=NN1	130 to 132 °C
C/C=C/CNC(=O)N1CC(Oc2cccc(C(F)(F)F)c2)C1	127 to 128 °C
COc1ccc(C(=O)C2CCC(CCO)CC2)cc1O (stereo unspecified)	107 to 109 °C
N[C@@H](Cc1c[nH]c2ccccc12)C(=O)N(N)C(=O)[C@H](Cc1c[nH]cn1)NC(=O)[C@@H]1CCC(=O)N1	165 to 169 °C
CCCCn1c(=O)c(NC(=O)Nc2c(C(C)C)cccc2C(C)C)c(-c2cccc(CCCO)c2)c2cccnc21	188 to 189 °C
O=[N+]([O-])c1cc2c(Cl)ncnc2s1	112 °C
CCOC(=O)c1cc2c3n(ccc-2n1)C(Br)C(C)=N3 (stereo unspecified)	224 to 226 °C
CCCCCCCC(=O)NNC(=O)N1Cc2ccccc2Oc2ccc(C(F)(F)F)cc21	97 to 100 °C
Cc1ccccc1-c1c(-c2ccc(S(C)(=O)=O)cc2)oc2ccccc2c1=O	190 to 191 °C
CCc1ccc(C(=NO)c2ccc(F)cc2)c(O)c1	130 to 132 °C
COc1cc(C(=O)NS(=O)(=O)c2ccccc2Cl)ccc1Cn1cc(/C=C/C(=O)N2CCCC2)c2ccc(/C=C/C(=O)N3CCCC3)cc21	291 to 293 °C
O=C(O)COc1cccc2c1CCc1sc(S(=O)(=O)C(c3ccc(Cl)cc3)c3ccc(Cl)cc3)nc1-2	197 to 199 °C
COc1nccc(-c2c(-c3ccc(F)cc3)ncn2C2CCC(=O)CC2)n1	212 to 214 °C
O=C1[C@H](CC[C@H](O)c2ccc(F)cc2)[C@@H](c2ccc(OS(=O)(=O)C(F)(F)F)cc2)N1c1ccc(F)cc1	122 °C
O=C1CC2CCc3ccc(F)cc3C2=NN1c1ccc(OCC2CO2)cc1 (stereo unspecified)	128 to 130 °C
Clc1ccc2c(C3=CCNCC3)c[nH]c2c1Cl	252 to 254 °C
N#Cc1cc2c(c(C(=O)O)c1)NCCS2	241 to 242 °C
Cc1cc(C#N)cc(C(=O)Nc2ccc(F)c(F)c2)n1	170 °C
Fc1cnc(OC(c2ccnc3cc(Cl)ccc23)C(F)(F)F)nc1 (stereo unspecified)	92 °C
COc1ccc2[nH]c3c([N+](=O)[O-])cc([N+](=O)[O-])c(Cl)c3c(=O)c2c1	253 to 254 °C
COc1cscc1C(=O)NN	91 to 92 °C

Reference: a melting point compilation (Tetko et al.; mined from patent text by program, amines drawn as free bases though some values may be those of a salt)
